According to publication PMC10863392:

Assay: Intramolecular Friedel-Crafts arylation (C(vinyl)-C(aryl) bond) of vinyl cation from vinyl tosylate; [Li]+[B(C6F5)4]- 10 mol%, LiH 5 equiv
Conditions: 1,2-dichlorobenzene, 16.7 mM, 140.0 °C

CC(C)=C1c2ccccc2CCN(S(=O)(=O)c2ccc(C)cc2)c2sc3c(c21)CCCC3 [SI-42 -> 19 (120 C)]
ring closure, isolated yield (from CC(C)=C(OS(=O)(=O)c1ccc(C)cc1)c1c(N(CCc2ccccc2)S(=O)(=O)c2ccc(C)cc2)sc2c1CCCC2, 8-membered ring, 20.0 h): 85%

CC(C)=C1c2ccccc2CCCN(S(=O)(=O)c2ccc(C)cc2)c2ccccc21 [SI-11 -> 6]
ring closure, isolated yield (from CC(C)=C(OS(=O)(=O)c1ccc(C)cc1)c1ccccc1N(CCCc1ccccc1)S(=O)(=O)c1ccc(C)cc1, 9-membered ring, 36.0 h): 82%

CC(C)=C1c2ccccc2CCN(S(=O)(=O)c2ccc(C)cc2)c2cc(C(F)(F)F)ccc21 [precursor of 17 (n.d., 160 C)]
ring closure, isolated yield (from CC(C)=C(OS(=O)(=O)c1ccc(C)cc1)c1ccc(C(F)(F)F)cc1N(CCc1ccccc1)S(=O)(=O)c1ccc(C)cc1, 8-membered ring): 0%

CC(C)=C1c2ccccc2CCN(S(=O)(=O)c2ccc(C)cc2)c2ccccc21 [SI-16 -> 5]
ring closure, isolated yield (from CC(C)=C(OS(=O)(=O)c1ccc(C)cc1)c1ccccc1N(CCc1ccccc1)S(=O)(=O)c1ccc(C)cc1, 8-membered ring, 36.0 h): 56%

CC1=C(c2ccccc2)c2ccccc2CCCC1 [precursor of 20 (n.d.)]
ring closure, isolated yield (from CC(CCCCc1ccccc1)=C(OS(=O)(=O)c1ccc(C)cc1)c1ccccc1, 8-membered ring): 0%

COc1ccc(CC2Cc3cc(OC)ccc3C(=C(C)C)c3ccccc3S2)cc1 (stereo not drawn) [28 -> 29a (NMR yield)]
ring closure, isolated yield (from COc1ccc(CC(Cc2cccc(OC)c2)Sc2ccccc2C(OS(=O)(=O)c2ccc(C)cc2)=C(C)C)cc1, 8-membered ring): 25%

Cc1ccc(S(=O)(=O)N2CCc3ccc(N(C)C)cc3C(=C3CCCCC3)c3ccccc32)cc1 [SI-24 -> 11]
ring closure, isolated yield (from Cc1ccc(S(=O)(=O)OC(=C2CCCCC2)c2ccccc2N(CCc2ccc(N(C)C)cc2)S(=O)(=O)c2ccc(C)cc2)cc1, 8-membered ring): 62%

CC(C)=C1c2ccccc2CCCOc2ccccc21 [SI-45 -> 10]
ring closure, isolated yield (from CC(C)=C(OS(=O)(=O)c1ccc(C)cc1)c1ccccc1CCCOc1ccccc1, 9-membered ring, 48.0 h): 65%

CC(C)=C1c2cc(O[Si](C)(C)C(C)(C)C)ccc2CCN(S(=O)(=O)c2ccc(C)cc2)c2ccccc21 [SI-33 -> 13]
ring closure, isolated yield (from CC(C)=C(OS(=O)(=O)c1ccc(C)cc1)c1ccccc1N(CCc1ccc(O[Si](C)(C)C(C)(C)C)cc1)S(=O)(=O)c1ccc(C)cc1, 8-membered ring): 79%

COc1ccc2c(c1)C(=C1CCCCC1)c1ccccc1N(S(=O)(=O)c1ccc(C)cc1)CC2 [SI-27 -> 12]
ring closure, isolated yield (from COc1ccc(CCN(c2ccccc2C(OS(=O)(=O)c2ccc(C)cc2)=C2CCCCC2)S(=O)(=O)c2ccc(C)cc2)cc1, 8-membered ring): 76%

Cc1ccc(S(=O)(=O)N2CCc3ccc(Br)cc3C(=C3CCCC3)c3ccccc32)cc1 [SI-36 -> 15]
ring closure, isolated yield (from Cc1ccc(S(=O)(=O)OC(=C2CCCC2)c2ccccc2N(CCc2ccc(Br)cc2)S(=O)(=O)c2ccc(C)cc2)cc1, 8-membered ring): 79%

Cc1ccc(S(=O)(=O)N2CCc3c(Cl)cccc3C(=C3CCCCC3)c3ccccc32)cc1 [1 -> 2]
ring closure, isolated yield (from Cc1ccc(S(=O)(=O)OC(=C2CCCCC2)c2ccccc2N(CCc2ccccc2Cl)S(=O)(=O)c2ccc(C)cc2)cc1, 8-membered ring, 18.0 h): 73%

COc1ccc2c(c1)N(S(=O)(=O)c1ccc(C)cc1)CCc1ccccc1C2=C(C)C [SI-46 -> 16]
ring closure, isolated yield (from COc1ccc(C(OS(=O)(=O)c2ccc(C)cc2)=C(C)C)c(N(CCc2ccccc2)S(=O)(=O)c2ccc(C)cc2)c1, 8-membered ring, 24.0 h): 78%

CC(C)=C1c2ccccc2CCSc2ccccc21 [SI-14 -> 8]
ring closure, isolated yield (from CC(C)=C(OS(=O)(=O)c1ccc(C)cc1)c1ccccc1SCCc1ccccc1, 8-membered ring): 46%

CC(C)=C1c2ccccc2CCCc2ccccc21 [SI-20 -> 9]
ring closure, isolated yield (from CC(C)=C(OS(=O)(=O)c1ccc(C)cc1)c1ccccc1CCCc1ccccc1, 8-membered ring): 81%

Cc1ccc(S(=O)(=O)N2CCc3sccc3C(=C3CCCCC3)c3ccccc32)cc1 [SI-38 -> 18]
ring closure, isolated yield (from Cc1ccc(S(=O)(=O)OC(=C2CCCCC2)c2ccccc2N(CCc2cccs2)S(=O)(=O)c2ccc(C)cc2)cc1, 8-membered ring, 20.0 h): 73%

Cc1ccc(S(=O)(=O)N2CCCCc3ccccc3C(=C3CCCCC3)c3ccccc32)cc1 [precursor of 7 (n.d.)]
ring closure, isolated yield (from Cc1ccc(S(=O)(=O)OC(=C2CCCCC2)c2ccccc2N(CCCCc2ccccc2)S(=O)(=O)c2ccc(C)cc2)cc1, 10-membered ring): 0%

Cc1ccc(S(=O)(=O)N2CCCc3ccc(C(F)(F)F)cc3C(=C3CCCCC3)c3ccccc32)cc1 [precursor of 14 (n.d.)]
ring closure, isolated yield (from Cc1ccc(S(=O)(=O)OC(=C2CCCCC2)c2ccccc2N(CCCc2ccc(C(F)(F)F)cc2)S(=O)(=O)c2ccc(C)cc2)cc1, 9-membered ring): 0%
